Data reported in US20200239530A1, “COMPOUNDS AND METHODS OF MODULATING PROTEIN DEGRADATION” (Vividion Therapeutics, Inc., priority 2017, published 2020).

Legend:
Experiment in all cases: Cysteine liganding, probe competition
Format in all cases: binding
[1] = molecular target: T1, FASTKD5 FAST kinase domain-containing protein 5 (Homo sapiens, UniProt Q7L8L6)
T1 construct: 200 μL of lysate containing 5 mg/ml proteome was treated with 2 μL of 100× compound stock; endogenous in cells
T1 sequence (Q7L8L6 28-764): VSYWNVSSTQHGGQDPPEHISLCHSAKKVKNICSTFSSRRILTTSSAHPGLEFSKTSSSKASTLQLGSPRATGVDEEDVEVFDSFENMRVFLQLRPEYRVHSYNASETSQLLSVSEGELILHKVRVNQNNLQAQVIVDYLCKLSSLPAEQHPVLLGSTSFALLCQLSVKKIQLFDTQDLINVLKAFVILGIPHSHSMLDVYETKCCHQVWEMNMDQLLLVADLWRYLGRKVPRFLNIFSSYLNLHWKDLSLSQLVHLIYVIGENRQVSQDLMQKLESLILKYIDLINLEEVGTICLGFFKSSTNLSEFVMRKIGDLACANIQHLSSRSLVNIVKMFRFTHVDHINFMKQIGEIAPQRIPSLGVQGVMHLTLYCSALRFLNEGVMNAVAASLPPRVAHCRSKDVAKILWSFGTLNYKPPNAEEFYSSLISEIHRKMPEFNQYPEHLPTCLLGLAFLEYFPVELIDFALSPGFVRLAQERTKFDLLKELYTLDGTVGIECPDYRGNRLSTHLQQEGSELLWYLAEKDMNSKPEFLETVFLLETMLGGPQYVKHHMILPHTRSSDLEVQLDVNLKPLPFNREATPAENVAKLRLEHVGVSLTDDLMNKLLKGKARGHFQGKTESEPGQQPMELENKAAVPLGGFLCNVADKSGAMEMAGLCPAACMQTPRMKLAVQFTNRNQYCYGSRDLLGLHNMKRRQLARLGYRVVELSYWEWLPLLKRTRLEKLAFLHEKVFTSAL
How it was run: (§1)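 Steps: sonicate cells in cold PBS; treat 5 mg/ml lysate with compound (25° C, 1 hr); add desthiobiotin iodoacetamide probe from a 10 mM stock (25° C, 1 hr); precipitate, reduce, alkylate, digest with trypsin; capture labelled peptides on streptavidin for analysis.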

[2] = molecular target: T2, KDSR 3-ketodihydrosphingosine reductase (Homo sapiens, UniProt Q06136)
T2 construct: Cells were resuspended in cold PBS on ice and sonicated with a probe sonicator to achieve lysis; endogenous in cells
T2 sequence (Q06136 26-332): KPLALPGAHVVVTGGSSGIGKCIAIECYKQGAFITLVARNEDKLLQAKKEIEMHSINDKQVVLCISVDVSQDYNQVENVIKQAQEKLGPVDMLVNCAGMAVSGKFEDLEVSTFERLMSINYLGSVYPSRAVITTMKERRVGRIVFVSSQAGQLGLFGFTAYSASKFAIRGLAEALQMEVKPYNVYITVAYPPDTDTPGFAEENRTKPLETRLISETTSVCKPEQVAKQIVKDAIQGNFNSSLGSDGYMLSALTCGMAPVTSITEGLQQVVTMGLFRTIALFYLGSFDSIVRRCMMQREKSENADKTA
How it was run: as §1

[3] = molecular target: T3, SETD1A Histone-lysine N-methyltransferase SETD1A (Homo sapiens, UniProt O15047)
T3 construct: Cells were resuspended in cold PBS on ice and sonicated with a probe sonicator to achieve lysis; endogenous in cells
How it was run: as §1

T3 sequence (O15047 whole entry): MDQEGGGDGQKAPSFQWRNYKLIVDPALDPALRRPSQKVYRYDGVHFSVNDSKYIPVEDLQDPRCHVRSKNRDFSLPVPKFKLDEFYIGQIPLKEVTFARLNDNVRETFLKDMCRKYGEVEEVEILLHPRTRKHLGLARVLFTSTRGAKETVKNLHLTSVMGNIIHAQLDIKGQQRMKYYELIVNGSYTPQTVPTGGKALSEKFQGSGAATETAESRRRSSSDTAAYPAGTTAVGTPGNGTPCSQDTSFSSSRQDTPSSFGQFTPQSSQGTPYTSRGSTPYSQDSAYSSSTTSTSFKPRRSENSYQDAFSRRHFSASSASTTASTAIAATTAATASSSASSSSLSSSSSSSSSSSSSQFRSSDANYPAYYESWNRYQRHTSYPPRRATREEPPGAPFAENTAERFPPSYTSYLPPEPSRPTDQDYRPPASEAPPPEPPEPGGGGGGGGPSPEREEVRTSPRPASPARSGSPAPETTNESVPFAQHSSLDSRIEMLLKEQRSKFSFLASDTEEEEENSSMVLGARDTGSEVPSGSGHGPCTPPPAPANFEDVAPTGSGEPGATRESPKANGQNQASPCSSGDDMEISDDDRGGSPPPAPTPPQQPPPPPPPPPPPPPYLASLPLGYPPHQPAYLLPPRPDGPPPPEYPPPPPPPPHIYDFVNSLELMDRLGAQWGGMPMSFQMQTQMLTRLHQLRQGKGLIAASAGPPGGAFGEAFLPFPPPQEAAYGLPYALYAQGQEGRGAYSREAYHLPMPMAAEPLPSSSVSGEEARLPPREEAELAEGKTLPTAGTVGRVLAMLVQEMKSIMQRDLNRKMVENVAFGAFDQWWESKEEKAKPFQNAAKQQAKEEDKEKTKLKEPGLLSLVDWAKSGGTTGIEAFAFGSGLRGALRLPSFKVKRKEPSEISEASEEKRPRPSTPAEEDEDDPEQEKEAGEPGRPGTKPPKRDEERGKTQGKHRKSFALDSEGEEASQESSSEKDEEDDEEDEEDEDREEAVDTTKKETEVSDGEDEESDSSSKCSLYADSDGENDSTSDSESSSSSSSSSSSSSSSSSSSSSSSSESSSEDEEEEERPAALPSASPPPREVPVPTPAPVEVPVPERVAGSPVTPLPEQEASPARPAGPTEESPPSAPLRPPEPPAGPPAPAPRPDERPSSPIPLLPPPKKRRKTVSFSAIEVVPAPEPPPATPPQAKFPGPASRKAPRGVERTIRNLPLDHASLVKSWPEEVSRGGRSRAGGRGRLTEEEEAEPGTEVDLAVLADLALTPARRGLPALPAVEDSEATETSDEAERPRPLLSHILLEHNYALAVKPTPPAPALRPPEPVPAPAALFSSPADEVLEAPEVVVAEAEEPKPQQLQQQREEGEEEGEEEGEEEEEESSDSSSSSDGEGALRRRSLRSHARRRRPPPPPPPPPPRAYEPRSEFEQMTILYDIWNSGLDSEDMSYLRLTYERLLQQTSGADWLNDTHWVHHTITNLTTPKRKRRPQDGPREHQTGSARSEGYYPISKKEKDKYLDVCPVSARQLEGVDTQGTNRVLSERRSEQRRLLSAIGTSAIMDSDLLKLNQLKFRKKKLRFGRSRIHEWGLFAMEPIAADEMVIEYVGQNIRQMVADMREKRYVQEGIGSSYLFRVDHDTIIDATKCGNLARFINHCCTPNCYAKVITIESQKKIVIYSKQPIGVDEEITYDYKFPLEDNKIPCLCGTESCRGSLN

| SMILES | Liganded ([1]; FASTKD5 Res# 670, uniprot Q7L8L6) | Liganded ([2]; KDSR Res# 121, uniprot Q06136) | Liganded ([3]; SETD1A Res# 1648, uniprot O15047) | 100 Max ([1]; uniprot Q7L8L6) | 100 ave ([1]; uniprot Q7L8L6) | 500 Max ([1]; uniprot Q7L8L6) | 500 ave ([1]; uniprot Q7L8L6) | 100 ave ([2]; uniprot Q06136) | 100 Max ([2]; uniprot Q06136, in % (unit assumed)) | 100 Max ([3]; uniprot O15047) | 100 ave ([3]; uniprot O15047) | 500 Max ([3]; uniprot O15047) | 500 ave ([3]; uniprot O15047) |
| --- | --- | --- | --- | --- | --- | --- | --- | --- | --- | --- | --- | --- | --- |
| COc1ccc2c(c1)CCCN2C(=O)CCl [KB02] | YES | YES | YES | – | – | – | – | – | – | – | – | – | – |
| O=C(CCl)Nc1cc(C(F)(F)F)cc(C(F)(F)F)c1 [KBO3] | – | – | – | 14.75 | 14.55 | 57.23 | 45.06 | −22.72 | −22.72 | 15.12 | −0.4575 | 40.15 | 38.365 |
